The values that follow come from PMC9873809, “Identification of a human estrogen receptor α tetrapeptidic fragment with dual antiproliferative and anti-nociceptive action” (Scientific Reports, 2023).

Data set [1] concerns tactile hypersensitivity in the murine CFA model. The data set can be described thus: von Frey test in Complete Freund's Adjuvant (CFA) inflammatory pain model. Particulars: for 50% paw withdrawal threshold (PWT): seven days after CFA, mean ± SEM, n = 8 mice. In kind it is in vivo, C57BL/6j mice. The protocol:
Experiments were performed according to ethical guidelines established by the International Association for the Study of Pain (IASP) and the relevant European legislation (Directive 2010/63/EU). They were also approved by the Auvergne Animal Experiment Ethics Committee, CE2A and the French Ministry of Higher Education and Innovation. Eight-week-old male C57BL/6j mice were purchased from Janvier Laboratories (Le Genest-Saint-Isle, France), housed under standard laboratory conditions (12 h light/dark cycle, temperature of 21 to 22 °C, 55% humidity under specific pathogen free conditions) and acclimatized for a week before testing. Food and water were available ad libitum.
Design, analysis and reporting were carried out in accordance with the ARRIVE guidelines[56]–[58]. To ensure the methodological quality of the study, Rice et al. recommendations were followed. Animals were randomly divided into eight mice per group. To assess different treatment effects over the same time interval and to avoid, thereby, unverifiable and time-variable environmental influence, treatments were administered following the method of equal blocks. All experiments were performed in a quiet room by the same blinded experimenter. ERα17p and PLMI peptides were dissolved in a saline solution prior to intraperitoneal administration (10 mL/kg).
A persistent inflammatory pain model was produced by injection under brief anesthesia (2.5% isoflurane inhalation) of Complete Freund's Adjuvant (CFA, 10 µL) on the left ankle joint of mice[60]. CFA consisted of Mycobacterium butyricum (Difco Laboratories, Detroit, USA) dissolved in paraffin oil and saline (0.9% NaCl). The solution was autoclaved 20 min at 120 °C. Behavior tests were performed before and seven days after CFA injection.
On behavior testing day, the mice were placed individually in Plexiglas compartments (8 cm (L) × 3.5 cm (W) × 8 cm (D)) and on an elevated wire mesh platform to allow access to the ventral surface of the hindpaws, and were allowed to acclimatize for one hour before testing. Von Frey filaments (0.02 to 1.4 g) were applied perpendicularly to the plantar surface of the paw. Paw withdrawal and licking were considered as positive responses. 50% paw withdrawal threshold (PWT) was determined using an adaptation of the Dixon up–down method, as described previously.
All data were analyzed using the Prism 8 software (GraphPad™ Software Inc., San Diego, CA). Data were tested for normality (Shapiro–Wilk test) and equal variance (Fisher test). For kinetic data, multiple measurements were compared with repeated measures (two-way ANOVA). Post hoc comparisons were performed by the Tukey’s test. […] AUC was expressed as mean ± SEM (g × min). […]

The nature of data set [2]: Transmission electron microscopy of aggregates. In kind it is physicochemical. The protocol:
Peptides were dissolved in appropriate buffer at pH 3.4, 7.4 and 9.1 to reach peptide stock solutions of 100 μM. Each peptide was incubated in an Eppendorf tube during 48 h. One drop (20 μL) of each peptide solution was adsorbed onto glow-discharged carbon coated 200 mesh copper grids. After 2 min, the grids were dried and negatively stained during 45 s with a 2.5% uranyl acetate solution. Grids were blotted, dried, and examined by using a Zeiss 912 Omega (Zeiss, Marly-le-Roi, France) […] or a JEOL 2100 HC (Croissy, France) […].

Data set [3] can be described thus: Solubility as observed when preparing biological assays. The settings on record: culture media; reason for exclusion from biological assays.
Data set [4] in a line: ThT fluorescence kinetics of fibril/aggregate formation. The settings on record: ThT 10 μM, mean of triplicate. Type of data set: physicochemical. The protocol: Fibrils were detected by measuring the fluorescence intensity of Thioflavin T (ThT)[53]. A plate reader (Fluostar Optima, BMG LabTech, Ortenberg, Germany) and standard 96-wells flat-bottom black microtiter plates (Costar 3792, Sigma Aldrich, Saint-Louis, USA) were used in combination with excitation and emission filters, at 440 and 485 nm, respectively (ThT concentration: 10 μM). Peptide concentrations varied from 10 to 100 μM, at pH 3.4 (0.2 M glycine HCl in water), pH 7.4 (0.2 M KH2PO4 in water, 0.2 M K2HPO4, in water) and pH 9.1 (0.2 M glycine NaOH in water). The microtiter plate was shaken prior to measurements. Fluorescence intensity (arbitrary units, u.a.) was recorded every 10 min, during 40 h. Resulting curves were analyzed by using GraphPad Prism. Data are the means of experiments performed in triplicate.

The nature of data set [5]: Circular dichroism of the soluble peptide pool over time. Type of data set: physicochemical. Particulars: pH 9.1, peptide 100 μM, 25 °C, between 5 and 22 h. How it is done:
CD spectra were recorded on a Jasco J-815 apparatus (Lisses, France) using quartz cells (0.1 cm path length, Hellma GmbH, Müllheim, Germany). Each peptide was dissolved (final concentration: 100 μM) in appropriate buffer solution, at pH 9.1. After an equilibration period of 5 min at 25 °C, CD spectra were recorded over the 190 to 260 nm wavelength range. Measurements were carried out at 1 nm intervals. Data points were acquired every 0.5 nm in continuous scanning mode (speed = 20 nm.min^−1, bandwidth = 1 nm). CD spectra were recorded after 0, 5, 22 and 28 h (unit: mean residue ellipticity [θ]MRE, in deg.cm^2.dmol^−1). Acquisitions were carried out using the software Spectra Manager. Recorded data (mean of five scans) were treated with GraphPad Prism. Buffer background was subtracted to avoid buffer and cell contributions.

For data set [6] the following is noted: cited from earlier work. The source says: Then, we have explored the biological effects of the peptide 2, not only on cell survival (in vitro study) but also in pain (in vivo study). […] Our approach consisting in designing a minimalist active ERα17p-derived peptide, the pharmacologically inert KRSKK motif was excluded from our study. […] Regarding phenotypes, a GPER-dependent ...

For data set [7], the system named is GPER knockout (KO) MDA-MB-231 cells. Briefly: Cell growth by automated cell counting. In kind it is cell-based, human. Particulars: GPER KO MDA-MB-231, 72 h, increasing concentrations, 2.5% charcoal-stripped FBS, three independent experiments in triplicate. How it is done:
(§1) MCF-7 (ER + , PR + , […] , GPER +) and HS578T (ER-, PR-, Her2-, GPER +) cells were cultured in RPMI-1640 and DMEM medium (Life Technologies, Courtaboeuf, France), respectively, supplemented with 10% (v/v) fetal bovine serum (FBS), 100 U/mL penicillin and 100 µg/mL streptomycin. MDA-MB-231 triple negative breast cancer cells were obtained from the ATCC (Manassas, VA, USA). Cells were maintained in DMEM/F12 (Dulbecco’s modified Eagle’s medium) with phenol red, supplemented with 5% fetal bovine serum (FBS) and 1% penicillin/streptomycin (Thermo Fisher Scientific, Monza, Italy). Cells were grown in a 37 °C incubator with 5% CO2.
(§2) Short guide RNA (sgRNA) sequence targeting human GPER was designed using the E-CRISP sgRNA Designer (http://www.e-crisp.org/E-CRISP/) and was cloned into the pSpCas9 (BB)-2A-Puro (PX459) plasmid, as previously described. The GPER sgRNA sequence used to generate the GPER knockout is as followed: sgGPER: 5′-[…]-3′. Next, the vector with sgRNA was transiently transfected into MDA-MB-231 cells using Lipofectamine LTX (Life Technologies, Milan Italy). […]
(§3) MDA-MB-231 WT and GPER KO cells were seeded in 24-well plates in regular growth medium. […] Cells were counted on day 4 using an automated cell counter (Life Technologies, Milan, Italy), following the manufacturer’s recommendations.

For data set [8], the system named is GPER (WT) MDA-MB-231 cells. The data set can be described thus: Cell growth by automated cell counting. The settings on record: WT MDA-MB-231, 72 h, increasing concentrations, 2.5% charcoal-stripped FBS, three independent experiments in triplicate. In kind it is cell-based, human. How it is done: as §1, §2, §3
The test system of data set [9] is xenografted triple negative breast tumors. The settings on record: 1.5 mg/kg body weight, three times a week for four weeks, mice; cited from earlier work.
Data set [10] deals with GPER. Particulars: binding within the ligand-binding site of GPER; cited from earlier work. The protocol:
In physiological conditions (complete serum) and at the concentration of 10 μM, ERα17p triggers membrane-initiated pro-apoptotic events, in both ERα-positive and -negative breast cancer cell lines with, however, a preference for ERα-positive cancer cells. It decreases the ratio Bcl-xl/Bax, increases cleaved caspase-9 and induces a redistribution of actin through a mechanism requiring PI3K, ROCK and p38 MAPK, depending on cell line[21],[22]. Moreover, ERα17p induces a proteasome-dependent decrease of the levels of the G protein-coupled estrogen receptor (GPER), of activated EGFR and ERK1/2 ...

Data set [11] deals with inflammation and pain. The settings on record: cited from earlier work.
Data set [12] is classed as physicochemical. The settings on record: for change of intensity of aliphatic proton signals (1H-NMR): 298 K, 65 h, 500 MHz. How it is done:
ERα17p fibrilization was followed at 298 K by using a NMR spectrometer (Bruker AVANCE III 500 MHz) equipped with a triple resonance (^1H, ^15 N, ^13C) cryoprobe. Each sample (100 μM) was prepared extemporaneously in appropriate buffer at pH 3.4, 7.4 and 9.1. A 10:90 D2O:H2O mixture was added to the buffer to reach a final D2O percentage of 7.5%. The final volume was of 520 μL in a 5 mm tube. 1D proton experiments (eight scans) were carried out over 65 h, with a total of 258 spectra (1 spectrum each 15 min, 8 scan/spectrum). Spectra analysis was carried out with the Bruker Topspin software by focusing between 0.80 and 3.60 ppm aliphatic side-chains region.

Where [13] appears, read: pH 9.1 (glycine NaOH 0.2 M in water), peptide 100 μM, 48 h incubation.

“Also recorded” adds a separate entry of the source. Where two headings read alike, the source gives them in different places. No end group written: not given here.

With `CN1CC[C@]23c4c5ccc(O)c4O[C@H]2[C@@H](O)C=C[C@H]3[C@H]1C5` [morphine, reference compound], the “50% paw withdrawal threshold (PWT)” value in data set [1] (1 mg/kg, positive control, time not stated) is recorded as 0.672 ± 0.041 g.
Turning to NSLALSLT [peptide 1], in [2] (setting [13]), the “length of stacked fibrils (TEM)” value is listed as 1.5 μm and the “thickness of stacked fibrils (TEM)” value is listed as 20 nm. For the same compound, the “solubility for biological assays” value in data set [3] is “insufficiently soluble; also recorded: poor solubility”. Further, the “formation of aggregates (ThT fluorescence), fragments” value in data set [4] (pH 9.1 (glycine NaOH 0.2 M), peptide 100 μM, 40 h, ERα17p as reference) is “exponential increase of the fluorescence signal”. Also, the “decrease of the soluble pool (CD)” value in [5] came out at 70%.
PLMIKRSKKNSLALSLT [ERα17p]: in [6], the cellular internalization result is reported as “poorly internalized”. Further, the “effect on cell viability” value in data set [7] was “inactive”; in data set [8], “able to reduce the viability”. In addition, the “50% paw withdrawal threshold (PWT)” value in data set [1] (1.25 mg/kg i.p., 45 min) amounted to 0.141 ± 0.025 g; in data set [1] (2.5 mg/kg i.p., 45 min), 0.293 ± 0.055 g. Also, in data set [1] (from AUC (0-180 min) of PWT variations, i.p., CFA model, von Frey test), the “calculated EC50 of anti-hyperalgesic action” value is listed as 3.7 ± 1.9 mg/kg. The “aggregates seen by TEM” value in data set [2] (pH 3.4, peptide 100 μM, 48 h incubation) is “no aggregate was detected”. The “morphology of aggregates by TEM” value in [2] (pH 7.4, peptide 100 μM, 48 h incubation) is recorded as “granulations resembling to a dense network of prefibrillar amyloid oligomers”; in data set [2] (pH 9.1, peptide 100 μM), “entanglement network of mature amyloid fibrils”. Besides, the “length of amyloid fibrils (TEM)” value in [2] (pH 9.1, peptide 100 μM, 48 h incubation) is above 1 μm. Besides, the “decrease of the size of xenografted triple negative breast tumors” value in data set [9] was “about 50%”. Besides, the “formation of aggregates (ThT fluorescence)” value in data set [4] (pH 3.4 (0.2 M glycine HCl in water), peptide 10-100 μM, 40 h, ex 440/em 485 nm) was “No aggregation”; in data set [4] (pH 7.4 (0.2 M KH2PO4/0.2 M K2HPO4 in water), peptide 50 and 100 μM, 40 h) it was “exponential time-dependent increase of the formation of aggregates”; in data set [4] (pH 9.1 (0.2 M glycine NaOH in water), peptide 50 and 100 μM, 40 h) it was “exponential time-dependent increase of the formation of aggregates”. Besides, the “delay before formation of aggregates (ThT fluorescence)” value in data set [4] (pH 9.1 (0.2 M glycine NaOH in water), peptide 10 and 25 μM) came out at 18 h. The Kd result in data set [10] was “micromolar range”. Also, in data set [11], the “dose from which anti-inflammatory and analgesic actions are supported” value was at least 2.5 mg/kg. In addition, the “change of intensity of aliphatic proton signals (1H-NMR)” value in [12] (pH 3.4, peptide 100 μM) is “No significant change”; in data set [12] (pH 9.1, peptide 100 μM), “decay of the proton signals followed by a plateau”. Moreover, the “total amount of peptide remaining soluble (1H-NMR)” value in data set [12] (pH 7.4) is listed as “about 40%”.
